Experimental data as given in patent publication US11753408B2, “Compounds and method for blocking transmission of malarial parasite” (The United States of America, as represented by the …, priority 2016, dated 2023).

Columns and labels:
[1] = Microsomal stability (rat); format: in vitro ADME; conditions: rat microsomes
[2] = tested on: Asexual parasites of P. falciparum strain 3D7; experiment: In vitro drug activity on asexual parasites (SYBR Green assay); format: cell-based, Plasmodium falciparum; conditions: P. falciparum 3D7 asexual parasites, 72 h, SYBR Green
Procedure, shortened: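 3D7 parasites at 0.5% parasitemia and 2% hematocrit were exposed to drugs (DMSO ≤0.5%) for 72 h under standard culture conditions, in duplicate. After freeze-thaw lysis, SYBR Green I lysis buffer was added for 30 min at room temperature, and fluorescence was read at 490/520 nm.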

Solubility at pH 7.4 = format: physicochemical
PAMPA permeability = format: in vitro ADME; conditions: PAMPA
[3] = tested on: Stage III-V gametocytes (blood stage P. falciparum parasites); experiment: In vitro drug activity on gametocytes (AlamarBlue viability assay); format: cell-based, Plasmodium falciparum; conditions: P. falciparum stage III-V gametocytes, 72 h incubation, AlamarBlue; for EC50: read-out: Gametocyte EC50
Procedure, shortened: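 P. falciparum 3D7 stage III–V gametocytes (also HB3, Dd2), enriched by 50 mM N-acetylglucosamine and Percoll gradient, seeded at 20,000/well with compound for 72 h at 37° C, 5% CO2. AlamarBlue then added for 24 h; viability read as fluorescence (Ex 525, Em 598 nm).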

SMILES	Microsomal Stability (rat) T1/2 [1] [min]	EC50 [2] [nM]	Sol @ pH 7.4 (ug/mL) (Solubility at pH 7.4)	PAMPA Permeability (×10^6 cm/s) (PAMPA permeability)	EC50 [3] [nM]	Gametocyte EC50 (nM) [3]
CN(C)Cc1ccc(-c2ccc3ncc4ccc(=O)n(-c5cccc(C#N)c5)c4c3c2)cc1 [Compound 2]	>30.0	291	>64.0	1040.6 ×10^6 cm/s	428	–
Cc1ccc(C#N)cc1-n1c(=O)ccc2cnc3ccc(-c4ccc(Cl)cc4)cc3c21 [Compound 3]	12.1	111	<0.1	621.2 ×10^6 cm/s	264	–
Cc1cc(N2CCNCC2)c(C#N)cc1-n1c(=O)ccc2cnc3ccc(-c4ccc(Cl)cc4)cc3c21 [Compound 4]	9.6	14.9	<1	21 ×10^6 cm/s	55	–
Cc1c(C#N)cccc1-n1c(=O)ccc2cnc3ccc(-c4ccc(Cl)cc4)cc3c21 [Compound 8]	14.5	60.3	<1	<1 ×10^6 cm/s	139	–
CCN(CC)Cc1ccc(-c2ccc3ncc4ccc(=O)n(-c5cc(C#N)ccc5C)c4c3c2)cc1 [Compound 9]	10.9	668	58.6	1492.3 ×10^6 cm/s	2570	–
N#Cc1cccc(-n2c(=O)ccc3cnc4ccc(-c5ccc(N)nc5)cc4c32)c1 [Compound 20]	>30.0	11.7	<1.0	505.6 ×10^6 cm/s	22.6	–
Cc1ccc(C#N)cc1-n1c(=O)ccc2cnc3ccc(-c4ccc(N)nc4)cc3c21 [Compound 21]	12.7	13.8	1.1	606 ×10^6 cm/s	17	–
N#Cc1cc(-n2c(=O)ccc3cnc4ccc(-c5ccc(N)nc5)cc4c32)ccc1N1CCOCC1 [Compound 23]	3.5	22.5	1.48	58.15 ×10^6 cm/s	40.4	–
Cc1c(C#N)cccc1-n1c(=O)ccc2cnc3ccc(-c4ccc(N)nc4)cc3c21 [Compound 24]	19	5.88	5.7	547.9 ×10^6 cm/s	23.4	–
CS(=O)(=O)c1ccc(-n2c(=O)ccc3cnc4ccc(-c5ccc(Cl)cc5)cc4c32)cc1 [Compound 25]	>30.0	14.7	<1.0	<1.5 ×10^6 cm/s	117	–
CS(=O)(=O)c1ccc(-n2c(=O)ccc3cnc4ccc(-c5ccc(Cl)c(N)c5)cc4c32)cc1 [Compound 28]	>30.0	16.2	<1.0	33.9 ×10^6 cm/s	95.3	–
CN(C)Cc1ccc(-c2ccc3ncc4ccc(=O)n(-c5ccc(S(C)(=O)=O)cc5)c4c3c2)cc1 [Compound 30]	>30.0	118	30.4	677.9 ×10^6 cm/s	336	–
COc1cc(-c2ccc3ncc4ccc(=O)n(-c5ccc(S(C)(=O)=O)cc5)c4c3c2)ccc1Cl [Compound 31]	>30.0	33.5	<1.0	40.7 ×10^6 cm/s	222	–
CS(=O)(=O)c1ccc(-n2c(=O)ccc3cnc4ccc(-c5ccc(Cl)c(C#N)c5)cc4c32)cc1 [Compound 32]	>30.0	85.5	<1.0	39.6 ×10^6 cm/s	92.8	–
O=c1ccc2cnc3ccc(-c4ccc(Cl)cc4)cc3c2n1-c1ccc(S(=O)(=O)N2CCOCC2)cc1 [Compound 38]	12.7	220	<1.0	32.5 ×10^6 cm/s	187	–
NS(=O)(=O)c1ccc(-n2c(=O)ccc3cnc4ccc(-c5ccc(Cl)cc5)cc4c32)cc1 [Compound 40]	>30.0	14.6	<1.0	<1.0 ×10^6 cm/s	51.7	–
CN(C)S(=O)(=O)c1ccc(-n2c(=O)ccc3cnc4ccc(-c5ccc(Cl)cc5)cc4c32)cc1 [Compound 42]	4.9	37.4	<1.0	97.4 ×10^6 cm/s	118	–
CS(=O)(=O)c1ccc(-n2c(=O)ccc3cnc4ccc(-c5ccc(Cl)c(C(=O)O)c5)cc4c32)cc1 [Compound 43]	>30.0	43800	>74.0	<1.0 ×10^6 cm/s	–	Inactive
CN(C)C=NS(=O)(=O)c1ccc(-n2c(=O)ccc3cnc4ccc(-c5ccc(Cl)cc5)cc4c32)cc1 [Compound 44]	4.6	31.2	<1.0	34.8 ×10^6 cm/s	135	–
CS(=O)(=O)c1ccc(-n2c(=O)ccc3cnc4ccc(-c5ccc(Cl)c(N)c5)cc4c32)cc1C(F)(F)F [Compound 45]	8.9	77.8	<1.0	144.4 ×10^6 cm/s	209	–
CS(=O)(=O)c1ccc(-n2c(=O)ccc3cnc4ccc(-c5ccc(CN)cc5)cc4c32)cc1 [Compound 47]	>30.0	66.4	2.1	<2.9 ×10^6 cm/s	377	–
Cc1cc(-c2ccc3ncc4ccc(=O)n(-c5ccc(S(C)(=O)=O)cc5)c4c3c2)ccc1Cl [Compound 48]	>30.0	200	<1.0	<1.0 ×10^6 cm/s	561	–
O=C1NCc2cc(-n3c(=O)ccc4cnc5ccc(-c6ccc(Cl)cc6)cc5c43)ccc21 [Compound 339]	>30.0	–	<1.0	<1.0 ×10^6 cm/s	9.19	–
O=C1NCc2ccc(-n3c(=O)ccc4cnc5ccc(-c6ccc(Cl)cc6)cc5c43)cc21 [Compound 344]	19.2	–	<1.0	238.8 ×10^6 cm/s	1500	–
O=C1NCc2cc(-n3c(=O)ccc4cnc5ccc(-c6ccc(CN7CCC7)cc6)cc5c43)ccc21 [Compound 378]	>30	–	>70	2.3 ×10^6 cm/s	1550	–
Nc1ccc(-c2ccc3ncc4ccc(=O)n(-c5ccc6c(c5)C(=O)NC6=O)c4c3c2)cn1 [Compound 395]	>30	–	11.3	3.9 ×10^6 cm/s	46000	–
